Assays:
Format in all cases: functional
Plasmodium berghei [1] = assay: In vivo antimalarial activity against Plasmodium berghei in mice (Mus musculus) at 40 mg/kg dose as mean survival time
Plasmodium berghei [2] = assay: In vivo antimalarial activity against Plasmodium berghei in mice (Mus musculus) at 160 mg/kg dose as mean survival time
Plasmodium berghei [3] = assay: In vivo antimalarial activity against Plasmodium berghei in mice (Mus musculus) at 80 mg/kg dose as mean survival time
Plasmodium berghei [4] = assay: In vivo antimalarial activity against Plasmodium berghei in mice (Mus musculus) at 20 mg/kg dose as mean survival time
Plasmodium berghei [5] = assay: In vivo antimalarial activity against Plasmodium berghei in mice (Mus musculus) at 20 mg/kg as mean survival time
Plasmodium berghei [6] = assay: In vivo antimalarial activity against Plasmodium berghei in mice (Mus musculus) at 160 mg/kg dose as mean survival time of mice (Mus musculus) after 60 days
Plasmodium berghei [7] = assay: In vivo antimalarial activity against Plasmodium berghei in mice (Mus musculus) at 40 mg/kg dose as mean survival time after 60 days

Structure (SMILES)	Mean survival time (Plasmodium berghei [1]) [days]	Mean survival time (Plasmodium berghei [2]) [days]	Mean survival time (Plasmodium berghei [3]) [days]	Mean survival time (Plasmodium berghei [4]) [days]	Mean survival time (Plasmodium berghei [5]) [days]	Mean survival time (Plasmodium berghei [6]) [days]	Mean survival time (Plasmodium berghei [7]) [days]
CCOC(=O)/C=C/C=C(C)C	6	8.8	7.4	5.4	–	–	–
C[C@@H]1CC[C@@H]([C@@H](C)CO)[C@H](O)C1	6.2	8.2	7	–	5.4	–	–
CCOC(=O)C(O)C1OC(C(C)(C)O)CCC1C (stereo not drawn)	7.2	11.4	8.4	–	6.4	–	–
CCOC(=O)/C=C/C(C)CCC=C(C)C (stereo not drawn)	6	8	7.2	5.4	–	–	–
CCOC(=O)/C=C/CC(C)CCC=C(C)C (stereo not drawn)	8.2	12.4	10.4	6	–	29.6	–
C[C@@H]1CC[C@H]2[C@@H](C)C(=O)O[C@@H]3O[C@@]4(C)CC[C@@H]1[C@]32OO4 [ARTEMISININ]	–	–	–	10.8	–	–	30.6
C[C@@H]1CC[C@H]2[C@@H](C)CO[B-]3(OC[C@H](C)[C@@H]4CC[C@@H](C)C[C@H]4O3)O[C@@H]2C1.[Na+] (stereo partly drawn)	9.6	12.6	10.8	9	–	28.6	–
CCOC(=O)/C=C/C=C(\C)CCC1OC1(C)C (stereo not drawn)	8.6	12.6	9.2	7.8	–	30.4	–

Reference: ChEMBL document CHEMBL1125207, “Monoterpenic fragment analogues of aplasmomycin as potential antimalarial” (1991)
